# Results reported in patent publication US6323195A, “Galanthamine derivatives as acetylcholinesterase inhibitors” (priority 1993, dated 2001).
# Where a name gives a salt, the structure may show the parent alone.
# Experiments:
# acetylcholinesterase = acetylcholinesterase (Homo sapiens, UniProt P22303); test: Acetylcholinesterase Inhibition Assay (photometric method of Ellman et al.); type: biochemical
# mice = type: in vivo; details: SDDA Dose 0.003 mg/kg, s.c., retest after 24 hours
# Method: This utility can also be ascertained by determining the ability of these compounds to restore cholinergically deficient memory in the Dark Avoidance Assay. In this assay mice are tested for their ability to remember an unpleasant stimulus for a period of 24 hours. A mouse is placed in a chamber that contains a dark compartment; a strong incandescent light drives it to the dark compartment, where an electric shock is administered through metal plates on the floor. The animal is removed from the testing apparatus and tested again, 24 hours later, for the ability to remember the electric shock.
# If scopolamine, an anticholinergic that is known to cause memory impairment, is administered before an animal's initial exposure to the test chamber, the animal re-enters the dark compartment shortly after being placed in the test chamber 24 hours later. This effect of scopolamine is blocked by an active test compounds, resulting in a greater interval before reentry into the dark compartment.
# The test results are expressed as the percent of a group of animals in which the effect of scopolamine is blocked, as manifested by an increased interval between being placed in the test chamber and reentering the dark compartment. Results of Dark Avoidance Assay for some of the compounds of this invention are presented in Table II along with a result for a reference compounds.
# Sequence of acetylcholinesterase (P22303 32-614): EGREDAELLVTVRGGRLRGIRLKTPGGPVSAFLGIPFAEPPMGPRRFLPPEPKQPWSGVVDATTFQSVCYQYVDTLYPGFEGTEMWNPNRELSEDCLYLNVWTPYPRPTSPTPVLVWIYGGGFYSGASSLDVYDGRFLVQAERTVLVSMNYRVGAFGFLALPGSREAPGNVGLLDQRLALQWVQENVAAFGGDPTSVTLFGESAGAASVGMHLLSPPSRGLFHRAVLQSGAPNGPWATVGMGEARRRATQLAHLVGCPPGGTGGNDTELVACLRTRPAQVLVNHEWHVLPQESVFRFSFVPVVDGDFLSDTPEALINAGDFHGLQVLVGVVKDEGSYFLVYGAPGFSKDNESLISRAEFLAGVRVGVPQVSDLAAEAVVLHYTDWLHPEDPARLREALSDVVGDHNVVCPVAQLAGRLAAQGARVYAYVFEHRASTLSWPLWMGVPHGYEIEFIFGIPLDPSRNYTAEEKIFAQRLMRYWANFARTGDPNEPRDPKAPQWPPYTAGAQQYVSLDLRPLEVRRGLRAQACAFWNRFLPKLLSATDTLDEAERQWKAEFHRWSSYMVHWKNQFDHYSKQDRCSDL
structure (smiles),measurement,setting,value
"CN1CC[C@@]23C=C[C@H](O)C[C@@H]2Oc2c(OC(=O)N4CCc5ccccc5C4)ccc(c23)C1 [Example 2, (6-O-Demethyl)-6-O-(1,2,3,4-tetrahydroisoquinolin-2-yl)carbonyl]-galanthamine hydrochloride]",IC50,acetylcholinesterase,900 pM
same,Percent of Animals with Scopolamine Induced Memory Deficit Reversal,mice,27% of Animals
